Laboratory results from patent US10682388B2, “Targeting of PELP1 in cancer therapy” (THE BOARD OF REGENTS OF THE UNIVERSITY OF TEXAS SYSTEM, priority 2014, dated 2020).

Key:
ZRPELP1 cells = experiment: Initial screen, proliferation assay of PELP1-overexpressing breast cancer cells; assay type: cell-based, Human; conditions: FIG. 1B
Experimental: FIGS. 1A-D. (FIG. 1A) Diagram for yeast two hybrid screen to identify PELP1 binding peptides. Four regions of PELP1 were tagged with the binding domain and a library of 10^6 random peptides (Clontech) were bound to an activation domain. The number of positive colonies per region of PELP1 are shown in the graph. (FIG. 1B) A proliferation assay was performed with […]1 cells plated in a 96 well plate, treated with peptide every 3 days and absorbance was measured at 7 days. (FIG. 1C) ZR75 were plated in a 6-well plate on coverslips in 8% RPMI and treated with 10 uM FITC labeled peptide for 30, 60, or 120 minutes. They were then fixed with pararformaldehyde, stained for PELP1 (red) and DAPI (blue), and imaged by confocal microscopy to monitor intracellular delivery. (FIG. 1D) ZR75 cells were starved of estrogen for 72 hours and treated with estradiol 10^-7 M for 12 hours. Nuclear lysate was incubated with biotin-tagged peptides bound to avidin beads for one hour. Beads were washed, run on SDS-PAGE gel and probed for PELP1 expression. Input of nuclear lysate is shown as control. Cell proliferation rates were measured by using MTT Cell Viability Assay in 96-well plates. Model cells were seeded in 96-well plates (1×10^3 cells/well) in DMEM or RPMI medium containing 10% serum. After an overnight incubation, cells were treated with varying concentrations of the peptides for 3-7 days and growth inhibition was determined by using traditional MTT assay (Sigma) following manufacturer's instructions.

[1] = molecular target: T1, PELP1, G9a and ERα complex (Homo sapiens, UniProt Q8IZL8); experiment: Competition assay for the complex of PELP1, G9a and ERα; assay type: binding; conditions: FIG. 2C
T1 construct: purified bacterial, full-length PELP1; host or cells: bacteria (PELP1)
T1 sequence (Q8IZL8 2-1130, one chain of several): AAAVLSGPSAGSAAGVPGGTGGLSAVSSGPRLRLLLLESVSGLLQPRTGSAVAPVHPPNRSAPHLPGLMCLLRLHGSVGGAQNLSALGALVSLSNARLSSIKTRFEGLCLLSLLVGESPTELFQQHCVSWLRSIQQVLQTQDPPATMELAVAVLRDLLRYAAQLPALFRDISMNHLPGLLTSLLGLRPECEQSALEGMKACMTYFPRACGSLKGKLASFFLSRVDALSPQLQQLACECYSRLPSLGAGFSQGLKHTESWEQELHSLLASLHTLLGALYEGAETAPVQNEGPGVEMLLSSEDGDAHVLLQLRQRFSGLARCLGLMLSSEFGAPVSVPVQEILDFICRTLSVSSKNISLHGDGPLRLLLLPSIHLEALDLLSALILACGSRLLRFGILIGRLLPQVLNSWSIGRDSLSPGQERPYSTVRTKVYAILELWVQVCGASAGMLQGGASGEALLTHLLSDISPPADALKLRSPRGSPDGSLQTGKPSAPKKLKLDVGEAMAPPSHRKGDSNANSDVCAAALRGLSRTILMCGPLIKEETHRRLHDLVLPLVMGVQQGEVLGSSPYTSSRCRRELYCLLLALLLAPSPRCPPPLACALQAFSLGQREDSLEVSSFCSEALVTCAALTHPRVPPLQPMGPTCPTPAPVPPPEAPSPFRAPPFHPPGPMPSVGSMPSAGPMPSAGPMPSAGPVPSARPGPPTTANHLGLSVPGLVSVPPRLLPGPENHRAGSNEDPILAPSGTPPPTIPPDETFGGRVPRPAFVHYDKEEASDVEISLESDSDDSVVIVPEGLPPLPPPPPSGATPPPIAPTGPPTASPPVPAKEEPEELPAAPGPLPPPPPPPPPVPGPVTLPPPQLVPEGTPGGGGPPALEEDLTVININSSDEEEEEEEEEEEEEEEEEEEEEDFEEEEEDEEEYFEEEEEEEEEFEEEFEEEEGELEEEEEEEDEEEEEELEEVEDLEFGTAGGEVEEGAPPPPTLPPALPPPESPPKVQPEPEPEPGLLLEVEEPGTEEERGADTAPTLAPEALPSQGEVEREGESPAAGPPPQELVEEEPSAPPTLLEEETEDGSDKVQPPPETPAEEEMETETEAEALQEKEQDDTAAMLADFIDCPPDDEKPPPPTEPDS
Experimental: FIGS. 2A-D. (FIG. 2A) Immunoprecipitation was performed on nuclear lysates obtained from […]1 cells grown in 5% DCC for 72 hours and treated with estradiol 10^-7 M for 12 hours. PELP1 was immunoprecipitated and western blotting was performed for PELP1 and G9a expression with IgG as the control. (FIG. 2B) Various fragments of PELP1 bound to glutathione beads were incubated with recombinant G9a for 2 hours. Beads were washed, run on an SDS-PAGE gel and immunoblotted for G9a expression. GST tag alone is shown as control. (FIG. 2C) Recombinant G9a-GST was bound to glutathione beads and incubated with purified PELP1 and peptides for 2 hours. Beads were washed and run on SDS-PAGE gel. (FIG. 2D) ZR75 cells were transfected with ERE-luciferase, PELP1 and/or G9a plasmids and treated with peptide for 24 hours and estradiol 10^-7 M for 12 hours. Relative luciferase activity is shown. Peptides were linked to EZ-Link NHS-Biotin (Thermo Scientific) per manutfacturer's protocol. […] Beads were washed 3× with IP buffer (20 mM HEPES pH 7.9, 20% glycerol, 0.1% triton-x, 100 mM KCl), eluted with SDS-dye, and PELP1 expression was determined by western blotting. […]

[2] = tested on: G9a target genes Pecam1, Serac1, Rb1 and Bmi1 in ZR75 cells; experiment: qRTPCR of G9a target genes; assay type: cell-based, Human; conditions: 10 μM, FIG. 3B
Experimental: FIGS. 3A-F. (FIG. 3A) Recombinant histones were incubated with G9a with increasing concentrations of PELP1, incubated 1 hour at 30° C. and western blot analysis was performed for expression of H3K9me2. Total histone H3 is shown as the control. (FIG. 3B) qRTPCR analysis of ZR75 and ZRPELP1KD cells treated with 10 μM TAT or PIP1 for 24 hours. G9a target genes PECAM1, SERAC1, RB1 and BMI1 expression is shown as—fold change over actin. (FIG. […]) ChIP-sequencing location analysis of H3K9me2 in control ZR75 model cells. (FIG. 3D) ChIP-sequencing location analysis of H3K9me2 in stable ZR75PELP1KD cells. (FIG. 3E) Ingenuity pathway analysis of genes from binding peaks of ChIP-sequencing of H3K9me2 in stable PELP1 ZR75PELP1KD cells. (FIG. 3F) Image from Integrated Genome Viewer of ChIP-sequencing of H3K9me2 in ZR75 and ZRPELP1KD cells.
Model cells ZR75 and ZRPELP1KD were grown in 8% DCC media for 72 hours and treated with TAT or PIP1 (10 μM) for […]. RNA was isolated by Trizol and cDNA was synthesized by Superscript III First Strand reverse transcriptase (Invitrogen). qPCR was performed in triplicate by SyberGreen using an Illumina Eco Real-Time PCR System. Gene expression was normalized to actin.

ZR75 cells = experiment: Estrogen-mediated growth, MTT assay; assay type: cell-based, Human; conditions: ZR75 cells stimulated with estradiol, FIG. 4C
Experimental: FIGS. 4A-E. (FIG. 4A) ZR75vec, ZR75PELP1, MCF7vec and MCF7PELP1 cells were treated in triplicate with TAT, PIP1 or PIP1 deletions (Del1, Del2, Del3) at 10 uM every 3 days and proliferation was measured by MTT assay on day 7. (FIG. 4B) ZRPELP1 cells were transfected with ERE-luciferase and treated with TAT, PIP1, or PIP2 for 24 hours and with estradiol for 12 hours. Relative luciferase activity was measured in triplicate. (FIG. 4C) ZR75 cells were grown in 5% DCC media for 72 hours, treated with TAT or PIP1 every 3 days, and treated with estradiol 10^−7 M for 12 hours. Proliferation was measured in triplicate on day 7 by MTT assay at 595 nm. (FIG. 4D) MCF7-Letrozole resistant cells were grown in 5% DCC media for 72 hours, treated with TAT, PIP1 or PIP2 every 3 days, and letrozole or estradiol 10^−7 M for 12 hours. Proliferation was measured in triplicate on day 7 by MTT assay at 595 nm. […] Proliferation was measured in triplicate on day 7 by MTT assay at 595 nm.
Cell proliferation rates were measured by using MTT Cell Viability Assay in 96-well plates. […] After an overnight incubation, cells were treated with varying concentrations of the peptides for 3-7 days and growth inhibition was determined by using traditional MTT assay (Sigma) following manufacturer's instructions.

GRKKRRQRRRGGMVEFRWSCPGRRKAKA [PIP1]
efficiency at inhibiting proliferation, PIP1 compared with PIP2 (ZRPELP1 cells): more efficient at inhibiting proliferation than PIP2 | PELP1-mediated breast cancer cell proliferation (ZRPELP1 cells; peptide every 3 days, absorbance at 7 days): significantly inhibit PELP1-mediated proliferation | formation of PELP1, G9a and ERα complex [1]: prevents the three proteins from forming a complex | expression of G9a target genes Pecam1, Serac1, Rb1 and Bmi1 [2]: decrease in the expression G9a upregulated target genes | estrogen-mediated growth (ZR75 cells): inhibition of the estrogen-mediated growth
